Measurements as given in patent publication US20240366577A1, “CONTROLLED LONG-TERM DRUG DELIVERY AND METHODS THEREOF” (THE JOHNS HOPKINS UNIVERSITY, priority 2021, published 2024).

Key:
4T1 tumors = assay: orthotopic parent 4T1 TNBC tumor growth; format: in vivo, BALB/c mice
Description: Namely, 4T1 tumors were treated with either PBS (PBS CONTROL), intraperitoneal (IP) bolus sorafenib (25 mg/kg BW/day) (IP BOLUS), 3 mg IP injected sorafenib crystals (IP CRYSTAL 3 MG), or sorafenib crystals (3 mg: SC CRYSTAL (3 MG); 10 mg: SC CRYSTAL (10 MG)) injected around developed tumors in the subcutaneous (SC) mammary fatpad. Furthermore, to truly test the utility of crystalline sorafenib in treating such an aggressive TNBC model, treatment was carried out retrospectively and only started once tumor volumes reached ˜225-250 mm^3. A positive control liquid-dissolved and daily injected drug treatment group was included, where mice were dosed with a daily bolus of 25 mg sorafenib/kg of mouse BW. […] This may be supported by our prior observation that in the IP compartment, where there is higher 10 liquid turnover as compared to the SC space, crystalline drugs usually have a faster kinetic of release over time.
4T1 or 4T1-luc2 cells were trypsinized using 0.25% Trypsin-EDTA, then diluted with the appropriate complete culture media and spun in a centrifuge at 300 g for 5 min. The supernatant was aspirated, and the pellet was re-suspended in serum-free RPMI 1640. The solution was centrifuged again, and the supernatant aspirated. Re-suspension, centrifugation, and aspiration was repeated once more. 5 mL of RPMI-1640 was then added to the pellet. 10 μL of the cell suspension was removed and mixed with 10 μL of Trypan blue stain 0.4% (ThermoFisher). Cells were counted with a Countess automated cell counter. Cell solutions were centrifuged one more time, the supernatant aspirated, and the pellet resuspended in the amount of RPMI-1640 required to achieve a concentration of 5×10^5 cells/200 μL of media. Tumor cells were then administered orthotopically in naive (and anesthetized) BALB/c mice into the right inguinal mammary fat pad 21 with 200 μL aliquots of the cell suspension, using an insulin syringe. Tumors were measured externally using a digital caliper, and volume was calculated (!″* (length * height) *−length * height). Except in the 4T1-luc2 trial, treatment began once tumors reached an average volume of 220-250 mm3. Experimental end point was deemed when solid tumors reached a volume of no more than 2000 mm3. Tumors were extracted and harvested, half stored in 4% paraformaldehyde diluted from 32% (Cat#50980495, Electron Microscopy Services) with DI H2O, and half frozen in liquid nitrogen, then stored at −80° C.
Once tumors had reached an average volume of ˜220-250 mm^3, mice were administered either subcutaneously or intraperitoneally with 3 or 10 mg of crystalline sorafenib, diameter ˜150-200 μm, suspended in 200 μL of sterile saline using an 18 g needle. […]

[1] = body weight of treated tumor-bearing mice; format: in vivo, BALB/c mice; settings: crystals in ~100-200 μl saline, IP or SC, any site or dose tested
Description: However, due to the highly hydrophobic nature of sorafenib, its daily 25 mg/kg bolus dosing regimen required regular used of a solvent solution made up of ˜60% of the strong organic solvent dimethylsulfoxide (DMSO). […] In stark contrast, no DMSO was required for delivery of sorafenib crystals, for which instead simply utilized ˜100-200 μl of saline to inject into the desired IP or SC tissue sites.
Once tumors had reached an average volume of ˜220-250 mm^3, mice were administered either subcutaneously or intraperitoneally with 3 or 10 mg of crystalline sorafenib, diameter ˜150-200 μm, suspended in 200 μL of sterile saline using an 18 g needle. As a control, mice (n=4) were dosed with sorafenib dissolved at a concentration of 4 mg/mL in a solution of 65% DMSO (remainder DPBS). Mice were dosed either subcutaneously or intraperitoneally with a bolus of 25 mg drug per kg of bodyweight (BW), daily. As a secondary control, mice were dosed with the 65% DMSO/PBS vehicle to monitor changes in body score based on the vehicle alone.

VE-Cdh, aSMact, Cd34 = assay: qPCR of retrieved tumors: VE-Cdh, aSMact, Cd34; format: in vivo, BALB/c mice; settings: crystals, compared to daily bolus; tumors at end of study
Description: To determine the anti-angiogenic efficacy of each sorafenib treatment group, qPCR gene expression analysis was performed on retrieved tumors at the conclusion of the study. In particular, analysis for levels of endothelial cell marker Cd31, vascular endothelial-cadherin (VE-Cdh), smooth muscle pericyte marker alpha Smooth Muscle actin (aSMact), and stem/progenitor cell marker Cd34 were conducted, as shown in FIG. 3F.
1 mL of TRIzol reagent (Cat#15596018, ThermoFisher) was added to 100 mg samples of tumor tissue and broken down with a power homogenizer (Polytron/VWR). Homogenized samples were incubated at room temperature for 5 min for complete nucleoprotein dissociation, then 0.2 ml of chloroform (Sigma) was added to each sample. Samples were shaken vigorously for 15 seconds and incubated at room temperature for 3 min before centrifuging at 12,000 g for 15 min at 4° C. The uppermost supernatant layer was pipetted into a 1.7 mL Eppendorf tube, with the remaining interphase and organic layer discarded. 0.5 mL of isopropanol (Sigma) was added to each sample, and then samples were incubated for 10 min. Samples were centrifuged at 12,000 g for 10 min at 4° C. […] Depending on size of resultant pellet, pellets were resuspended in 50-100 μL, and nucleic acid concentration was measured using a NanoDrop 2000 spectrophotometer (ThermoFisher). […]

[2] = crystals collected from vitreous fluid after intravitreal injection; format: in vivo, mouse; settings: collected 2 weeks after injection; compared to larger crystalline sorafenib

CNC(=O)c1cc(Oc2ccc(NC(=O)Nc3ccc(Cl)c(C(F)(F)F)c3)cc2)ccn1 [crystalline sorafenib, sorafenib]
tumor response (tumor volume) (4T1 tumors; single IP injection, 3 mg crystals): less response than 10 mg SC but more than a comparable 3 mg dose injected SC
tumor response (tumor volume) (4T1 tumors; single local SC injection, 10 mg crystals, start at ~225-250 mm^3): tumor stasis
tumor response (tumor volume) (4T1 tumors; single local SC injection, 2-3 mg crystals, start at ~225-250 mm^3): tumor delays only
effect on bodyweight [1]: did not negatively affect bodyweight
knockdown of VE-Cdh, aSMact and Cd34 (qPCR) (VE-Cdh, aSMact, Cd34): not as significant
polymorph and crystal form of crystals recovered from vitreous fluid [2]: identical in polymorph and crystal form
